Results as given in paper PMC10482975 (Nature Communications, 2023).
Changes are numbered by the printed parent chain.

Experiments:
M4 mAChR L190F = target: T1, M4 mAChR L190F (Homo sapiens, UniProt P08173, L190F); assay: [3H]-NMS radioligand dissociation binding, M4 mAChR L190F; parameters: unit not given here
T1 construct: expressed in transfected cells
T1 sequence (P08173 1-479 L190F): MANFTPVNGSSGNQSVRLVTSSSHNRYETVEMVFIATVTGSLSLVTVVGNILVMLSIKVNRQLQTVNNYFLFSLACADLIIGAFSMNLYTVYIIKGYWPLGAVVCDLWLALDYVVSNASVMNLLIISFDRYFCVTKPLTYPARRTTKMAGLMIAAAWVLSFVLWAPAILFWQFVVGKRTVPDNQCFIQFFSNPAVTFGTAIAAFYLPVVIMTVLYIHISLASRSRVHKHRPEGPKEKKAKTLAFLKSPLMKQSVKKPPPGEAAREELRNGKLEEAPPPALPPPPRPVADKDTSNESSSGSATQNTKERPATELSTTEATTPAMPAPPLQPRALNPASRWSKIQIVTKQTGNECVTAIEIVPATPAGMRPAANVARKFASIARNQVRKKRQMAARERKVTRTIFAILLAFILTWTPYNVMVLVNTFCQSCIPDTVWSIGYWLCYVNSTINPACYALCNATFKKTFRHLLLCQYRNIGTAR
Experimental: (§1) Flp-In Chinese hamster ovary (CHO) (Thermo Fisher Scientific) cells stably expressing mAChR WTs or mutant constructs were cultured in Dulbecco’s modified Eagle’s medium (DMEM, Invitrogen) containing 5% foetal bovine serum (FBS; ThermoTrace) and […] of hygromycin (Roche) in a humidified incubator (37 °C, 5% CO2). Upon reaching confluence, media was removed, cells were washed with phosphate buffered saline (PBS) and harvested from tissue culture flasks using versene (PBS with 0.2 g EDTA). Cells were then pelleted through centrifugation at 350 × g for three minutes followed by resuspension in DMEM + 5% FBS. Cells were then either plated for an assay or reseeded into a tissue culture flask.

M4 mAChR W435A = target: T2, M4 mAChR W435A (Homo sapiens, UniProt P08173, W435A); assay: [3H]-NMS radioligand dissociation binding, M4 mAChR W435A; parameters: [3H]-NMS binding remaining vs Total Binding, MEAN: unit not given here; conditions: for [3H]-NMS binding remaining vs Total Binding, MEAN: M4 W435A mAChR
T2 construct: expressed in transfected cells
T2 sequence (P08173 1-479 W435A): T1 sequence (P08173 1-479 L190F) with F190L, W435A
Experimental: as §1

M3 mAChR WT = target: T3, M3 mAChR WT (Homo sapiens, UniProt P20309); assay: [3H]-NMS radioligand dissociation binding, M3 mAChR WT
T3 construct: expressed in transfected cells
Experimental: as §1

M4 mAChR Y89A = target: T4, M4 mAChR Y89A (Homo sapiens, UniProt P08173, Y89A); assay: [3H]-NMS radioligand dissociation binding, M4 mAChR Y89A; parameters: [3H]-NMS binding remaining vs Total Binding, MEAN: unit not given here; conditions: for [3H]-NMS binding remaining vs Total Binding, MEAN: M4 Y89A mAChR; for effect on [3H]-NMS dissociation (in words): M4 mAChR Y89A mutant
T4 construct: expressed in transfected cells
T4 sequence (P08173 1-479 Y89A): T1 sequence (P08173 1-479 L190F) with Y89A, F190L
Experimental: as §1

[1] = + 10uM LY2033 (Allosteric Ligand), Time 0 min (Total Binding)
[2] = + 10uM LY2033 (Allosteric Ligand), Time 30 min
[3] = + 10uM LY2033 (Allosteric Ligand), Time 60 min
[4] = + 10uM LY2033 (Allosteric Ligand), Time 90 min
[5] = + 10uM LY2033 (Allosteric Ligand), Time 120 min
[6] = + 10uM LY2033 (Allosteric Ligand), Time 180 min
[7] = + 10uM LY2033 (Allosteric Ligand), Time 300 min

T3 sequence (P20309 whole entry): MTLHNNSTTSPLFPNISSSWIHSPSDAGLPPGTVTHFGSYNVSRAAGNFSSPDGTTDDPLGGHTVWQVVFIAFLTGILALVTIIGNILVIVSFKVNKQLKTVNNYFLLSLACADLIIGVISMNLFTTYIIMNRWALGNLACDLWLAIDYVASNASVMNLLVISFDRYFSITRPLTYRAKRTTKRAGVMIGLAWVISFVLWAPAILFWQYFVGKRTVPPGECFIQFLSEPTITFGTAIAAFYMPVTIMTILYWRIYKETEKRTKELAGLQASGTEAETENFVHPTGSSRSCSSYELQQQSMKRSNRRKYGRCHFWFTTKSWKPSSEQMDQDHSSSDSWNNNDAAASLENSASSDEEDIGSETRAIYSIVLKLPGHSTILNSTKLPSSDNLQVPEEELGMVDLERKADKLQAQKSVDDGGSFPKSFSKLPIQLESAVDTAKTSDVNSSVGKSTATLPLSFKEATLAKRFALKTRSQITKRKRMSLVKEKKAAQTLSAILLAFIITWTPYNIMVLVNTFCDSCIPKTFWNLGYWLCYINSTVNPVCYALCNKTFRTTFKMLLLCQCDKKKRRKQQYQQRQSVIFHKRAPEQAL

COc1nc2sc(C(=O)NC3CC3)c(N)c2c(C)c1Cl [LY2033298]
[3H]-NMS binding remaining vs Total Binding, MEAN (M4 mAChR L190F; [1]): 100
[3H]-NMS binding remaining vs Total Binding, MEAN (M4 mAChR L190F; [2]): 104.676
[3H]-NMS binding remaining vs Total Binding, MEAN (M4 mAChR L190F; [3]): 101.661
[3H]-NMS binding remaining vs Total Binding, MEAN (M4 mAChR L190F; [4]): 96.3234
[3H]-NMS binding remaining vs Total Binding, MEAN (M4 mAChR L190F; [5]): 92.5099
[3H]-NMS binding remaining vs Total Binding, MEAN (M4 mAChR L190F; [6]): 89.5439
[3H]-NMS binding remaining vs Total Binding, MEAN (M4 mAChR L190F; [7]): 70.7364
[3H]-NMS binding remaining vs Total Binding, MEAN (M4 mAChR W435A; [1]): 100
[3H]-NMS binding remaining vs Total Binding, MEAN (M4 mAChR W435A; [2]): 87.6204
[3H]-NMS binding remaining vs Total Binding, MEAN (M4 mAChR W435A; [3]): 83.5904
[3H]-NMS binding remaining vs Total Binding, MEAN (M4 mAChR W435A; [4]): 79.4133
[3H]-NMS binding remaining vs Total Binding, MEAN (M4 mAChR W435A; [5]): 78.9331
[3H]-NMS binding remaining vs Total Binding, MEAN (M4 mAChR W435A; [6]): 67.1451
[3H]-NMS binding remaining vs Total Binding, MEAN (M4 mAChR W435A; [7]): 50.6666
[3H]-NMS binding remaining (0 min = 100), MEAN (M3 mAChR WT; M3 mAChR, 10uM Atr + 30uM LY2033, 10 min): 96.1336
[3H]-NMS binding remaining (0 min = 100), MEAN (M3 mAChR WT; M3 mAChR, 10uM Atr + 30uM LY2033, 15 min): 101.345
[3H]-NMS binding remaining (0 min = 100), MEAN (M3 mAChR WT; M3 mAChR, 10uM Atr + 30uM LY2033, 30 min): 103.79
[3H]-NMS binding remaining (0 min = 100), MEAN (M3 mAChR WT; M3 mAChR, 10uM Atr + 30uM LY2033, 90 min): 88.3999
[3H]-NMS binding remaining (0 min = 100), MEAN (M3 mAChR WT; M3 mAChR, 10uM Atr + 30uM LY2033, 120 min): 77.6461
[3H]-NMS binding remaining (0 min = 100), MEAN (M3 mAChR WT; M3 mAChR, 10uM Atr + 30uM LY2033, 210 min): 65.167
[3H]-NMS binding remaining vs Total Binding, MEAN (M4 mAChR Y89A; [1]): 100.077
[3H]-NMS binding remaining vs Total Binding, MEAN (M4 mAChR Y89A; [2]): 111.396
[3H]-NMS binding remaining vs Total Binding, MEAN (M4 mAChR Y89A; [3]): 121.467
[3H]-NMS binding remaining vs Total Binding, MEAN (M4 mAChR Y89A; [4]): 123.726
[3H]-NMS binding remaining vs Total Binding, MEAN (M4 mAChR Y89A; [5]): 111.892
[3H]-NMS binding remaining vs Total Binding, MEAN (M4 mAChR Y89A; [6]): 116.814
[3H]-NMS binding remaining vs Total Binding, MEAN (M4 mAChR Y89A; [7]): 102.533
effect on [3H]-NMS dissociation (in words) (M4 mAChR Y89A): the same effect was observed

C[N+](C)(C)CC#CCOC1=NOCC1 [iperoxo]
[3H]-NMS binding remaining (0 min = 100), MEAN (M3 mAChR WT; M3 mAChR, 10uM Atr + 10 μM Iperoxo, 10 min): 100.4
[3H]-NMS binding remaining (0 min = 100), MEAN (M3 mAChR WT; M3 mAChR, 10uM Atr + 10 μM Iperoxo, 15 min): 96.8554
[3H]-NMS binding remaining (0 min = 100), MEAN (M3 mAChR WT; M3 mAChR, 10uM Atr + 10 μM Iperoxo, 30 min): 79.7803
[3H]-NMS binding remaining (0 min = 100), MEAN (M3 mAChR WT; M3 mAChR, 10uM Atr + 10 μM Iperoxo, 90 min): 45.8424
[3H]-NMS binding remaining (0 min = 100), MEAN (M3 mAChR WT; M3 mAChR, 10uM Atr + 10 μM Iperoxo, 120 min): 38.0708
[3H]-NMS binding remaining (0 min = 100), MEAN (M3 mAChR WT; M3 mAChR, 10uM Atr + 10 μM Iperoxo, 210 min): 19.3493

CCCCCCOc1nsnc1C1=CCCN(C)C1 [xanomeline]
[3H]-NMS binding remaining vs Total Binding, MEAN (M4 mAChR L190F; +100uM Xano, Time 90 min): 72.792
[3H]-NMS binding remaining vs Total Binding, MEAN (M4 mAChR L190F; +100uM Xano, Time 180 min): 51.0423
[3H]-NMS binding remaining vs Total Binding, MEAN (M4 mAChR L190F; +100uM Xano, Time 300 min): 24.2929
[3H]-NMS binding remaining vs Total Binding, MEAN (M4 mAChR W435A; +100uM Xano, Time 30 min): 96.9648
[3H]-NMS binding remaining vs Total Binding, MEAN (M4 mAChR W435A; +100uM Xano, Time 60 min): 87.005
[3H]-NMS binding remaining vs Total Binding, MEAN (M4 mAChR W435A; +100uM Xano, Time 90 min): 77.1921
[3H]-NMS binding remaining vs Total Binding, MEAN (M4 mAChR W435A; +100uM Xano, Time 120 min): 74.9315
[3H]-NMS binding remaining vs Total Binding, MEAN (M4 mAChR W435A; +100uM Xano, Time 180 min): 64.2361
[3H]-NMS binding remaining vs Total Binding, MEAN (M4 mAChR W435A; +100uM Xano, Time 300 min): 31.9462
effect on [3H]-NMS dissociation (in words) (M4 mAChR W435A; M4 mAChR W435A mutant): loss in xanomeline modulation
IC50 (M3 mAChR WT): 182 µM
allosteric effect on [3H]-NMS dissociation (in words) (M3 mAChR WT; M3 mAChR): modest
[3H]-NMS binding remaining (0 min = 100), MEAN (M3 mAChR WT; M3 mAChR, 10uM Atr + 10 μM Xano, 10 min): 102.824
[3H]-NMS binding remaining (0 min = 100), MEAN (M3 mAChR WT; M3 mAChR, 10uM Atr + 10 μM Xano, 15 min): 94.4472
[3H]-NMS binding remaining (0 min = 100), MEAN (M3 mAChR WT; M3 mAChR, 10uM Atr + 10 μM Xano, 30 min): 84.3079
[3H]-NMS binding remaining (0 min = 100), MEAN (M3 mAChR WT; M3 mAChR, 10uM Atr + 10 μM Xano, 90 min): 53.078
[3H]-NMS binding remaining (0 min = 100), MEAN (M3 mAChR WT; M3 mAChR, 10uM Atr + 10 μM Xano, 120 min): 40.5004
[3H]-NMS binding remaining (0 min = 100), MEAN (M3 mAChR WT; M3 mAChR, 10uM Atr + 10 μM Xano, 210 min): 20.6349
[3H]-NMS binding remaining (0 min = 100), MEAN (M3 mAChR WT; M3 mAChR, 10uM Atr + 30 μM Xano, 10 min): 103.273
[3H]-NMS binding remaining (0 min = 100), MEAN (M3 mAChR WT; M3 mAChR, 10uM Atr + 30 μM Xano, 15 min): 95.5713
[3H]-NMS binding remaining (0 min = 100), MEAN (M3 mAChR WT; M3 mAChR, 10uM Atr + 30 μM Xano, 30 min): 87.9383
[3H]-NMS binding remaining (0 min = 100), MEAN (M3 mAChR WT; M3 mAChR, 10uM Atr + 30 μM Xano, 90 min): 53.4947
[3H]-NMS binding remaining (0 min = 100), MEAN (M3 mAChR WT; M3 mAChR, 10uM Atr + 30 μM Xano, 120 min): 41.606
[3H]-NMS binding remaining (0 min = 100), MEAN (M3 mAChR WT; M3 mAChR, 10uM Atr + 30 μM Xano, 210 min): 24.8398
[3H]-NMS binding remaining (0 min = 100), MEAN (M3 mAChR WT; M3 mAChR, 10uM Atr + 100uM Xano, 10 min): 100.762
[3H]-NMS binding remaining (0 min = 100), MEAN (M3 mAChR WT; M3 mAChR, 10uM Atr + 100uM Xano, 15 min): 94.0238
[3H]-NMS binding remaining (0 min = 100), MEAN (M3 mAChR WT; M3 mAChR, 10uM Atr + 100uM Xano, 30 min): 90.7523
[3H]-NMS binding remaining (0 min = 100), MEAN (M3 mAChR WT; M3 mAChR, 10uM Atr + 100uM Xano, 90 min): 62.8848
[3H]-NMS binding remaining (0 min = 100), MEAN (M3 mAChR WT; M3 mAChR, 10uM Atr + 100uM Xano, 120 min): 45.8052
[3H]-NMS binding remaining (0 min = 100), MEAN (M3 mAChR WT; M3 mAChR, 10uM Atr + 100uM Xano, 210 min): 29.7551
[3H]-NMS binding remaining vs Total Binding, MEAN (M4 mAChR Y89A; +100uM Xano, Time 30 min): 98.3579
[3H]-NMS binding remaining vs Total Binding, MEAN (M4 mAChR Y89A; +100uM Xano, Time 60 min): 102.694
[3H]-NMS binding remaining vs Total Binding, MEAN (M4 mAChR Y89A; +100uM Xano, Time 90 min): 104.852
[3H]-NMS binding remaining vs Total Binding, MEAN (M4 mAChR Y89A; +100uM Xano, Time 120 min): 120.479
[3H]-NMS binding remaining vs Total Binding, MEAN (M4 mAChR Y89A; +100uM Xano, Time 300 min): 77.2149
effect on [3H]-NMS dissociation (in words) (M4 mAChR Y89A): improved ability
